Source: patent publication US20260216328A1, “DISRUPTABLE LINKER COMPOSITIONS, SWITCHABLE BISPECIFIC T CELL NANOENGAGER (SWITCH-BITE) COMPOSITIONS COMPRISING THE SAME, AND METHODS OF USE THEREOF” (The Trustees of the University of Pennsylvania, priority 2023, published 2026)

Experiments:
[1] = system: E0771-HER2 cells and primary mouse T cells; assay: T cell-tumour cell engagement by confocal microscopy; assay type: cell-based
Method: E0771-HER2 cells were labeled with CSFE-green and primary T cells were labelled with CFSE-red. The two cells were co-cultured and then treated with PBS or SiTE for 2 h. After that, the cells were observed by confocal imaging. T cell to T cell interactions and T cell to tumour cell interactions were counted manually by taking 10 images for quantification.
After synthesis and characterization of the AMD-responsive SiTE, the ability of SiTE to induce tumour cell-T cell engagement and tumour cell lysis was tested (FIG. 11A). E0771-HER2 cells were incubated with primary mouse T cells at a 1:1 ratio. Cells were then treated with SiTEs at varying concentrations for 4 h and observed under confocal laser scanning microscopy (CLSM) (FIG. 11B). In the untreated control group, cancer cells and T cells were randomly distributed with few T cells and cancer cells engaged. However, in groups receiving 5 ng/mL of SiTE, ~10% of T cells were engaged with tumour cells, and this rate increased to ~90% when cells were treated with 20 ng/mL of SiTE. […] To ensure the specificity of this engagement. […] Since the SiTE contains >20 Fabs, it is possible that it may induce T cell-to-T cell engagement and induce cytokine release. […] After 24 h, mouse blood was collected and the T cell crosslinking levels and IL-6 and TNF-α levels were measured. […]

E0771-HER2 tumour = E0771-HER2 tumour growth inhibition in C57/BL6 mice; assay type: in vivo, mouse; details: following AMD infusion after SiTE
Description: FIG. 20A: 106 E0771-HER2 cells were s.c. injected into the right flank of C57/BL6 mice. […] All mice were euthanized at day 23. FIG. 20B: images of mice from all treatment groups on day 23. FIG. 20C: tumour growth curves for different groups. Tumour tissue was isolated on Day 23 and observed for immune cell infiltration. FIG. 20D: repeat of the tumour growth inhibition experiment. FIG. 20E: mouse body weight change during the tumour inhibition experiment. FIG. 20F: percentages of CD45+, CD45+CD3+, CD45+CD3+CD4+/CD8+ cells in the tumour tissues. FIG. 20G: immunofluorescence images of the tumour tissues in different groups with cell nuclei labeled with DAPI (blue) and T cells labeled with anti-CD3 antibody (green). Scale bar: 100 μm.
Tumour size and mouse weight were monitored.
Minimal changes in mouse weight were observed across the different groups (FIG. 20E), likely because HER2 antigen is not expressed on normal mouse cells, preventing toxicity from on-target, off-tumour activity. At day 23, all mice were euthanized and tumour tissue was collected to determine total lymphocyte and CD3^+ T cell infiltration using flow cytometry and immunofluorescence imaging.
Additionally, to confirm that this impact on the tumour tissue was HER2 specific, SiTE activity was evaluated in a HER2 negative E0771 tumour model (FIGS. 24A-24J).

NC12CC3CC(CC(C3)C1)C2 [AMD, adamantan-1-amine]
separation of conjugated cells ([1]; 100 ng/mL AMD after 20 ng/mL SiTE for 4 h): ~ 40%
separation of conjugated cells ([1]; 1 μg/mL AMD after 20 ng/mL SiTE for 4 h): ~100%
number of T cells in the tumour tissue (E0771-HER2 tumour): greatly decreased
